Where only a bound is given, the exact number is not on record here.

What is called IC50 is the concentration that inhibits the measured activity by half. In general, inhibition refers to how much of the control response was suppressed. Usually % Inhibition stands for the relative decrease from the control value, in per cent.

The subject of one data set is H1299 cells. The data set is described as follows: MTS growth inhibition assay, H1299. Conditions: H1299, 72 hours, 100 μmol/L single agent.
Data set [1] has as its system HCT116 cells. Conditions: for single agent activity (growth inhibition vs vehicle): up to 75 μmol/L.
Data set [2] concerns A549 cells. The data set is described as follows: Colony formation assay, A549. The format is cell-based. Conditions: A549, 12.5 and 25 μmol/L compound plus 1 μmol/L FUdR, vs vehicle-treated controls. On the procedure:
(§1) Colony forming assay showing the ability of colon (SW620, HCT 116), non-small cell lung (A549, H460, H1299 and H358) and breast (MCF7) cancer cells to survive and proliferate following transient 24 hour exposure to single agent PCI 1013, FUdR and combinations. Specifically, cells were seeded at densities between 50 and 100 cells/well in 24-well plates. Twenty-four hours later, cells were treated with increasing concentrations of PCI 10213, a fixed dose of FUdR and combinations of these. After 24 hours, drug was removed, cells were rinsed and allowed to outgrow for 10-14 days. At the conclusion of the outgrowth, cells were fixed in 60% ice cold methanol and stained with 0.1% crystal violet, scanned and counted. Data is presented as percentage of untreated controls (mean±SD). Fraction affected and combination indexes were calculated according to the method of Chou and Talalay where <1 is indicative of a synergistic drug interaction.
(§2) Subsequently, increasing concentrations of PCI 10213 were combined with a fixed dose of FUdR to evaluate the combined drug effect. In NSCLC cells, concentrations of PCI 10213 ranging from 3.1 μmol/L to 25 μmol/L were combined with 1 μmol/L FUdR. […] The effectiveness of this combination was pronounced in A549 and H460 cells where 12.5 and 25 μmol/L PCI 10213 combined with 1 μmol/L FUdR reduced cell viability by >95% compared to vehicle-treated controls.

For data set [3], the system named is colorectal (HCT116), breast (MCF-7) and non-small cell lung (H1299, A549, H358 and H460) cell line models. The data set is described as follows: Colony formation assay, all cell lines evaluated. It is filed as cell-based. Here is the method:
as §1, §2

Data set [4] deals with T1, Recombinant human deoxyuridine nucleotidohydrolase (dUTPase) (Homo sapiens, UniProt P33316).
T1 sequence (P33316 1-164 isoform P33316-2): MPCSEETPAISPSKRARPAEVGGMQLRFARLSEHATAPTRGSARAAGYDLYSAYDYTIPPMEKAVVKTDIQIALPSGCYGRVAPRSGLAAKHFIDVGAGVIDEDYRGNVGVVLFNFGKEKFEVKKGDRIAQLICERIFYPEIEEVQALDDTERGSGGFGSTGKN
The data set is described as follows: Fluorescence-based dUTPase inhibition assay (Example 19; 5 ng dUTPase, 8 min at 37° C.).
From the text: All drugs stocks were aliquoted and diluted as appropriate prior to use. The oligonucelotide primer, templates and fluorophore- and quencher-labeled detection probes are synthesized by Integrated DNA Technologies (Coralville, Iowa), subjected to polyacrylamide gel electrophoresis purification and reconstituted in Omnipur sterile nuclease-free water (EMD Chemicals USA, Gibbstown N.J.) at a stock concentration of 100 μmol/L. The two non-emissive (dark) quenching molecules incorporated into the detection probes include the Iowa black fluorescein quencher (IBFQ; absorption max 531 nm) and ZEN (non-abbreviation; absorption max 532 nm). The fluorescent label utilized was 6-FAM (5′-carboxyfluorescein; excitation max.=494 nm, emission max.=520 nm). Probes were further diluted to a working stock of 10 μmol/L and aliquoted to avoid repeated freeze/thaw cycles. AmpliTaq Gold DNA Polymerase, GeneAmp 10×PCR Buffer 2, MgCl2 and MicroAmp Optical 96-well Reaction Plates were purchased from Applied Biosystems (Carlsbad, Calif.). dNTPs were purchased individually at stock concentrations of 100 mmol/L from New England Biolabs at HPLC-certified >99% purity (Ipswich, Mass.).
Reaction mixtures contained primer, probe and template at an equimolar final concentration of 0.4 μmol/L. Magnesium chloride (MgCl2) was included at a final concentration of 2 mmol/L. Non-limiting dNTPs were included in the reaction mix in excess at a final concentration of 100 μmol/L (dUTP/dTTP was excluded). AmpliTaq Gold DNA polymerase was added at 0.875 U/reaction, 2.5 μl of 10×PCR buffer 2 added and nuclease-free ddH2O added to a final reaction volume of 25 μl. For dUTP inhibition analysis, the volume of ddH2O was further modified to accommodate an additional 1 μl of dUTPase (10 ng/μl) and 1 μl of inhibitor or DMSO control. Thermal profiling and fluorescence detection was performed using the ‘isothermal’ program on board an Applied Biosystems 7500 Real-Time PCR System. For analysis of dNTPs, the thermal profile consisted of an 8 min 37° C. step followed by a 10 min 95° C. step to ‘hot-start’ the Taq polymerase and a primer extension time of up to 30 min at 60° C. depending on the application. Raw fluorescence spectra for 6-FAM was measured using filter A at specified time intervals to follow assay progression using Sequence Detection Software (SDS Version 1.4, Applied Biosystems) and exported and analyzed in Microsoft Excel (Microsoft, Redmond Wash.) and Prism (GraphPad Software, La Jolla Calif.). In all cases, fluorescence values for blank reactions (limiting dNTP omitted) were subtracted to give normalized fluorescence units (NFU) to account for background fluorescence.
The assay employs a DNA polymerase-based approach utilizing an oligonucleotide template with 3 distinct regions: a 3′ primer binding region, a mid-template dUTP/thymidine triphosphate (TTP) detection region and a 5′ 6-Flavin adenine mononucleotide (FAM)-labeled probe binding region that incorporates a black hole quenching moiety.
reaction, the probe and primer hybridize to the oligonucleotide template to form the template:primer:probe complex. When Taq polymerase binds to the primer in the TPP complex and dUTP is present, successful extension of the nascent strand occurs and the inherent 5′ to 3′ exonuclease activity of Taq polymerase cleaves and displaces the 6-FAM-labeled probe in a 5′ to 3′ direction, releasing the 6-FAM fluorophore from its proximity to the three quenchers.

The subject of data set [5] is HCT116 cells. The data set is described as follows: Colony formation assay, HCT116. It is filed as cell-based. The following applies: for colonies formed, combination with FUdR: HCT116, increasing concentrations of compound plus fixed 0.5 μmol/L FUdR, vs single agents. Here is the method: as §1, with “interaction. […]” for “interaction.”
(§3) In colorectal cancer cells, concentrations of PCI 10213 ranging from 3.1 μmol/L to 50 μmol/L were combined with 0.5 μmol/L FUdR in HCT116 cells and 1 μmol/L FUdR in SW620 cells.

Data set [6] has as its system NSCLC cells (H1299, A549, H358 and H460). The data set is described as follows: Colony formation assay, NSCLC cells. The format is cell-based. Conditions: 3.1 to 25 μmol/L compound plus 1 μmol/L FUdR, vs single agents. On the procedure:
as §1, §2

The subject of a further data set is H460 cells. The data set is described as follows: Colony formation assay, H460. It is filed as cell-based. Conditions: H460, 12.5 and 25 μmol/L compound plus 1 μmol/L FUdR, vs vehicle-treated controls. On the procedure:
as §1, §2

Data set [7] concerns SW620 cells. The data set is described as follows: MTS growth inhibition assay, SW620. The following applies: for single agent activity / decrease in proliferation / single agent activity (growth inhibition vs vehicle): SW620, 72 hours; for single agent activity / decrease in proliferation: 100 μmol/L single agent; for single agent activity (growth inhibition vs vehicle): up to 75 μmol/L. Background: Tetrazolium dyes change colour on reduction, which living cells bring about.
Method: (§4) The Cell Titer^96 AQueous MTS assay (Promega) was carried out according to the manufacturers guidelines. […] The combination effect was determined by the combination index (CI) method utilizing Calcusyn software (Biosoft, Ferguson, Mo.). Fraction affected (FA) was calculated from the percent growth inhibition: FA=(100−% growth inhibition)/100. CI values <1, synergism; 1-1.2, additive and >1.2, antagonism.
HCT116 and SW620 cells were exposed to increasing concentrations of each agent for 72 hours and growth inhibition was directly compared to vehicle-treated controls.

Data set [8] deals with A549 cells. The data set is described as follows: MTS growth inhibition assay, A549. The following applies: A549, 72 hours, 100 μmol/L single agent.
Method: as §4
(§5) The NSCLC cell lines A549 and H1299 were exposed to increasing concentrations of each agent for 72 hours and growth inhibition was directly compared to vehicle-treated controls.
For data set [9], the system named is SW620 cells. The data set is described as follows: Colony formation assay, SW620. It is filed as cell-based. Here is the method:
as §1, §3

In data set [10] the target is T1, Recombinant human deoxyuridine nucleotidohydrolase (dUTPase). The data set is described as follows: Fluorescence-based dUTPase inhibition assay (Example 23; 2.5 ng dUTPase, 10 min at 37° C.). The format is biochemical. On the set-up: made in house. From the text:
PCI 10586, 10585 and 10213 were suspended in DMSO at a concentration of 100 mmol/L, fluorodeoxyuridine (FUdR) was obtained from Sigma (St Louis, Mo.) and maintained in sterile double-distilled water at stock concentrations of 50 mmol/L. Recombinant human deoxyuridine nucleotidohydrolase (dUTPase) was expressed and purified as described previously [Please provide reference or confirm as noted above].
The diastereomer compounds were isolated by preparative chiral HPLC and screened in a novel fluorescence-based assay as described in Wilson et al. (2011) Nucleic Acids Res., September 1 39(17). […] The subsequent fluorescence detection step involved five 10 min cycles at 60° C. to completion.

Data set [11] concerns HCT-8 colorectal cell line model. The data set is described as follows: Colony formation assay, HCT-8. The format is cell-based. Conditions: HCT-8, increasing concentrations of compound plus fixed 1 μmol/L FUdR, vs single agents. On the procedure: as §1
Colony forming assays were subsequently performed to evaluate the effectiveness of additional PCI compounds alone and in combination with FUdR at reducing cancer cell viability in the HCT-8 colorectal cell line model. […] Subsequently, increasing concentrations of PCI compounds were combined with a fixed dose of 1 μmol/L FUdR to evaluate the combined drug effect.

Method for H1299 cells: as §4, §5

Take `C[C@@H](NS(=O)(=O)CC/C=C/CC1CCC(=O)NC1=O)c1cccc(OCC2CC2)c1` (mixture of isomers) [PCI 10213]: the “decrease in cell proliferation” value in the data set on H1299 cells stood at 40%. The “growth inhibition as a single agent” value is recorded as “no detectable effect on growth inhibition” in the data set with HCT116 cells [1] (HCT116, 25 μmol/L single agent) and “no detectable effect on growth inhibition” with SW620 cells [7] (SW620, 25 μmol/L single agent). The “decrease in growth / reduction in proliferation” value in the data set on HCT116 cells [1] (HCT116, 72 hours, 100 μmol/L single agent) is listed as 28%; with A549 cells [8], roughly 25%. The “single agent activity (growth inhibition vs vehicle)” value in the data set on HCT116 cells [1] (HCT116, 72 hours) is recorded as “little to no single agent activity”; in the data set with SW620 cells [7], “neither PCI 10213 or 10214 had any single agent activity”. The “combined effect with 5-FU on growth inhibition” value in the data set on HCT116 cells [1] (HCT116, fixed 25 μmol/L compound plus increasing 5-FU, up to 25 μmol/L 5-FU) is “additive and synergistic increases in growth inhibition”; in the data set with SW620 cells [7] (SW620, fixed 25 μmol/L compound plus increasing 5-FU, up to 25 μmol/L 5-FU), “additive and synergistic increases in growth inhibition”. In addition, the “reduction of cell viability, combination with FUdR” value with A549 cells [2] and in the data set on H460 cells was greater than 95% in each case. In data set [3] (3.1 to 25 μmol/L single agent), the “number of colonies formed, compound alone” value was “no significant effects on the number of colonies formed”. In addition, the IC50 in data set [4] worked out at 7.2 µM. Also, the inhibition at 1.3 µM in [4] (1.3 umol/L compound) worked out at 28%; in [10] (1.3 μmol/L compound), 4.7%. The inhibition at 2.6 µM was found to be 31.6% in data set [4] (2.6 umol/L compound) and 9.6% in [10] (2.6 μmol/L compound). Further, the inhibition at 5.2 µM in data set [4] (5.2 umol/L compound) turned out to be 40.9%; in data set [10] (5.2 μmol/L compound) it was 14.5%. The inhibition at 10.4 µM in [4] (10.4 umol/L compound) came to 60.3%; in data set [10] (10.4 μmol/L compound), 24.9%. Further, the results for the inhibition at 20.8 µM in data set [4] (20.8 umol/L compound) and in data set [10] (20.8 μmol/L compound) were 64.5% and 30%, respectively. For the same compound, the inhibition at 41.7 µM is 73.8% in data set [4] (41.7 umol/L compound) and 45.5% in [10] (41.7 μmol/L compound). For the same compound, the “% Inhibition” value in [4] (83.3 umol/L compound) is 86.1%. Moreover, the results for the inhibition at 83.3 µM in data set [4] (83.3 umol/L compound) and in [10] (83.3 μmol/L compound) were 86% and 54.6%, respectively. The “viability, combination with FUdR” value in the data set with HCT116 cells [5] (HCT116, 50 μmol/L compound plus FUdR) is “complete loss of viability”. Also, the “colonies, all combinations with FUdR” value in the data set with HCT116 cells [5] (HCT116, 3.1 to 50 μmol/L compound plus 0.5 μmol/L FUdR) was “strong synergistic reduction in colonies”; with SW620 cells [9] (SW620, 3.1 to 50 μmol/L compound plus 1 μmol/L FUdR), “strong synergistic reduction in colonies”. Also, the “reduction of colony formation, combination with FUdR” value was greater than 95% in the data set with HCT116 cells [5] (HCT116, 12.5 and 25 μmol/L compound plus 0.5 μmol/L FUdR); greater than 50% with SW620 cells [9] (SW620 (strongly FUdR-resistant), 12.5 and 25 μmol/L compound plus FUdR (0.5 μmol/L in the sentence)). The “number of colonies formed, single agent” value with HCT116 cells [5] (HCT116, PCI 10213 3.1 to 50 μmol/L or FUdR 0.5 μmol/L alone) is on record as “neither PCI 10213 or the fixed dose of FUdR single agent had any significant effect on the number of colonies formed”; with SW620 cells [9] (SW620, PCI 10213 3.1 to 50 μmol/L or FUdR 1 μmol/L alone) it was “neither PCI 10213 or the fixed dose of FUdR single agent had any significant effect on the number of colonies formed”. The “colonies formed, combination with FUdR” value in [6] was “highly significant reductions in colonies formed”. For the same compound, the “single agent activity / decrease in proliferation” value in the data set with SW620 cells [7] is reported as roughly 30%.

Turning to `O=c1[nH]cc(F)c(=O)[nH]1` [5-FU, 5-fluorouracil, reference compound], the “growth inhibition, 5-FU alone” value in the data set with HCT116 cells [1] (HCT116, 0 to 100 μmol/L) is recorded as “dose-dependent increases in growth inhibition”; in the data set with SW620 cells [7] (SW620, 0 to 100 μmol/L) it was “dose-dependent increases in growth inhibition”.

Turning to `C[C@@H](NS(=O)(=O)CC/C=C/CC1SC(=O)NC1=O)c1cccc(OCC2CC2)c1` (stereo partly drawn) [PCI 10214], the “decrease in cell proliferation” value in the data set on H1299 cells is reported as no more than 40%. The “single agent activity (growth inhibition vs vehicle)” value with HCT116 cells [1] (HCT116, 72 hours) is “little to no single agent activity”. Moreover, in the data set on SW620 cells [7], the “single agent activity / decrease in proliferation” value is given as roughly 30% and the “single agent activity (growth inhibition vs vehicle)” value is given as “neither PCI 10213 or 10214 had any single agent activity”. In the data set with A549 cells [8], the “decrease in growth / reduction in proliferation” value is reported as roughly 25%.

In the case of `CC[C@@](O)(Cn1nncc1CCCNC1CCC(=O)NC1=O)c1ccc(F)c(OCC2CC2)c1` (stereo partly drawn) [PCI 10927], the “colonies formed / combined drug effect with FUdR” value in data set [11] is “Substantial reductions in colonies formed”.

For `CC[C@@](O)(Cn1nncc1CCCCc1cnc2c(c1)CCC(=O)N2)c1ccc(F)c(OCC2CC2)c1` [PCI 10928], in data set [11], the “colonies formed / combined drug effect with FUdR” value is reported as “Substantial reductions in colonies formed”.

For `CC[C@@](O)(Cn1nncc1CCCCC1Cc2cccc(OC)c2NC1=O)c1ccc(F)c(OCC2CC2)c1` (stereo partly drawn) [PCI 10929], the “colonies formed / combined drug effect with FUdR” value in [11] is reported as “Substantial reductions in colonies formed”.

On to `CC[C@@](O)(Cn1nncc1CCCCC1C(=O)Nc2ncccc21)c1ccc(F)c(OCC2CC2)c1` (stereo partly drawn) [PCI 10930], for which, in [11], the “colonies formed / combined drug effect with FUdR” value is listed as “Substantial reductions in colonies formed”.

With `CC[C@@](O)(Cn1nncc1CCCCNC1(C)CCC(=O)NC1=O)c1ccc(F)c(OCC2CC2)c1` (stereo partly drawn) [PCI 10933], in [11], the “colonies formed / combined drug effect with FUdR” value was “Substantial reductions in colonies formed”.

For `CC[C@@](O)(Cn1nncc1CCCCn1ccc(=O)[nH]c1=O)c1ccc(F)c(OCC2CC2)c1` [PCI 10950, reference compound], the “colonies formed / combined drug effect with FUdR” value in data set [11] is “strong synergy”. Besides, in [3] (all cell lines examined (cell lines not named at b507)), the “combined drug effect with fixed doses of FUdR” value is listed as “strong synergy”.

Turning to `CC[C@@](O)(Cn1nncc1CCCCC1CCC(=O)NC1=O)c1ccc(F)c(OCC2CC2)c1` (stereo partly drawn) [PCI 10951], the “colonies formed / combined drug effect with FUdR” value in [11] is on record as “Substantial reductions in colonies formed”. Besides, the “colonies formed, combination with FUdR” value in the data set with HCT116 cells [5] is given as “Substantial reductions in colonies formed”.

Regarding `CC[C@@](O)(Cn1nncc1CCCCCC1CCC(=O)NC1=O)c1ccc(F)c(OCC2CC2)c1` (stereo partly drawn) [PCI 10952], the “colonies formed, combination with FUdR” value in the data set with HCT116 cells [5] is recorded as “modest reductions in colonies formed”.
